This is an account of results in patent publication US12459899B2, “Isoquinolinone derivatives, method for preparing the same, and pharmaceutical composition for preventing or treating poly(ADP-ribose) polymerase-1-related diseases, comprising the same as active ingredient” (DIGMBIO. INC., priority 2019, dated 2025).

Test [1] deals with PARP-1 (poly[ADP-ribose] polymerase 1) enzyme (Homo sapiens (Human), UniProt P09874). Nature of the test: PARP-1 (poly[ADP-ribose] polymerase 1) enzyme inhibitory ability, Trevigen assay kit. The format is biochemical. The following applies: for inhibition at 0.001 µM: 1 nM compound, read-out: PAR P-1 Inhibitory ability at 1 nM; for IC50: PARP-1 enzyme activity. The essentials: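 Human PARP-1 activity was measured with a Trevigen assay kit in histone-coated 96-well plates rehydrated with 50 μL of 1×PARP buffer for 30 minutes. Enzyme (0.5 unit/well) and compound were preincubated 10 minutes at room temperature, then 25 μL of 1×PARP cocktail with biotinylated NAD and activated DNA was added for 1 hour.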
Sequence of PARP-1 (poly[ADP-ribose] polymerase 1) enzyme (P09874 whole entry): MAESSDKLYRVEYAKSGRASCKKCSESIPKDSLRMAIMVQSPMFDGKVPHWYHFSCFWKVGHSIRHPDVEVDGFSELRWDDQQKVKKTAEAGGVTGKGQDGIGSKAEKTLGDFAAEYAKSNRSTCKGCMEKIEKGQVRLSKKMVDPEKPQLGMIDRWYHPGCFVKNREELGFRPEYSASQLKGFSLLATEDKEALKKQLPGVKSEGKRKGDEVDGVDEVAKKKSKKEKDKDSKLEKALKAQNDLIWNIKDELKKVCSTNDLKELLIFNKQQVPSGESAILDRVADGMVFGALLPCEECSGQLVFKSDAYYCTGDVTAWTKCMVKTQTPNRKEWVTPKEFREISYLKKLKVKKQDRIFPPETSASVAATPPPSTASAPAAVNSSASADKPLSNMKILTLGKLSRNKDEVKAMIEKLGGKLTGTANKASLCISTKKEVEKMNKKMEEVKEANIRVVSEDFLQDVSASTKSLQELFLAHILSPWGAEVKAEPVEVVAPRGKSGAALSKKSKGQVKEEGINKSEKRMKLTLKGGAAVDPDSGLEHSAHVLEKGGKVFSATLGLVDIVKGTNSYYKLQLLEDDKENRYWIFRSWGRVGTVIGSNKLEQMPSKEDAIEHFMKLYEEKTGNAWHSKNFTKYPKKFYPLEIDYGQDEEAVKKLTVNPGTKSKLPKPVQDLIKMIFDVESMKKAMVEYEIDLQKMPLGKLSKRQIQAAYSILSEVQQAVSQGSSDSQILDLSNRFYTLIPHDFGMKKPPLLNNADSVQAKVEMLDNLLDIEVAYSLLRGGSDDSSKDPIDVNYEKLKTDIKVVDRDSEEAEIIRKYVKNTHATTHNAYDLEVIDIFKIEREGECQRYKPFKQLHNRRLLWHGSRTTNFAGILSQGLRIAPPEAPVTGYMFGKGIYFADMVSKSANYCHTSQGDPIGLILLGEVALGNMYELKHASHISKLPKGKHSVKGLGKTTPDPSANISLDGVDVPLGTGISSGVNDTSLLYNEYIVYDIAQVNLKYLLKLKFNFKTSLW

For test [2], the system named is ARPE-19 cells. Nature of the test: Retinal pigment epithelial cell line protection, H2O2-induced apoptosis, MTS activity assay. The following applies: 0.5 mM H2O2, 6 hours. The format is cell-based, human. The procedure:
In order to evaluate the protective effect of the compounds according to the present invention on the retinal pigment epithelial cell line under the condition of inducing dry macular degeneration-like apoptosis, the following experiment was performed.
Specifically, ARPE-19 cells, which is a human retinal pigment epithelial cell line, were cultured in DMEM:F12 (Dulbecco's Modified Eagle's Medium: Ham's nutrient mixture F-12) containing 10% fetal bovine serum (FBS) and 1% penicillin/streptomycin. The cells were aliquoted in a well plate so that the number of cells per well was 1×10^4, and incubated in a 37° C. CO2 incubator for 12 hours. DMSO (0.1%) (control group) alone or various concentrations of the compounds of Examples 1 to 276 according to the present invention (experimental groups) were treated in a medium mixed with 0.5 mM H2O2 (control group), and then, the cells were further cultured in a 37° C. CO2 incubator for 6 hours to induce apoptosis.
The degree of apoptosis was measured by an MTS (3-(4,5-dimethylthiazol-2-yl)-5-(3-carboxymethoxyphenyl)-2-(4-sulfophenyl)-2H-tetrazolium) activity assay method manufactured by Promega, the cell MTS activity level in the normal medium condition was set to 100%, and the relative degree of cell protection was converted and determined based on the MTS activity level of the control group in the 0.5 mM H2O2 treatment condition.
The MTS activity assay evaluation method is a method of measuring the activity of NADH dehydrogenase in mitochondria in cells, and MTS is reduced by NADH dehydrogenase to form colored formazan. Through this method, live cells can be quantified, and cell proliferation and apoptosis can be quantified. After the above-mentioned damage stimulus was treated to the retinal pigment epithelial cell line, 15 μL of MTS activity assay kit manufactured by Promega was added to each well, and then reacted in a 37° C. CO2 incubator for 2 hours. The reacted wells were quantified by measuring the absorbance at 450 nm using a microplate reader Victor 3 manufactured by PerkinElmer, Inc., and the results are shown in Table 4 below.
For orientation: Tetrazolium dyes change colour on reduction, which living cells bring about.

Test [3] concerns rat model for dry macular degeneration (sodium iodate). Nature of the test: Retinal layer protection of rats in sodium iodate model for dry macular degeneration. The test is classed as in vivo. The following applies: 8-week-old rats, SI 50 mg/kg i.p., compound single intraperitoneal injection 15 mg/kg, H&E. The procedure:
In order to evaluate the inhibitory effect (protective effect) of the compounds according to the present invention on reducing the thickness of the retinal layer of rats in dry macular degeneration-like cells, the following experiment was performed.
Specifically, 8-week-old rats were intraperitoneally injected with 50 mg/kg of sodium iodate (SI) to degenerate the retinal pigment epithelium and the photoreceptor cell layer to create a simulated animal model for dry macular degeneration. Retinal degeneration was observed 1 week after SI administration.
After a single intraperitoneal injection of Example 46 or Example 1 at a concentration of 15 mg/kg to the rat model for dry macular degeneration, the inhibitory effect (protective effect) on reducing the thickness of the retinal layer of the rats was evaluated.
In order to quantify the reduction of retinal thickness, the eyes extracted from the rats were fixed in a 4% glutaraldehyde solution for 3 hours and then embedded with paraffin. After preparing 5 μm-thick tissue fragments, the fragments were stained with a hematoxylin-eosin (H&E) solution and photographed with an optical microscope to measure the thickness of the retinal outer nuclear layer (ONL) of the retina. As a result, the thickness (μm) of the retinal ONL of the control group was calculated and expressed as 100% (n=3 times). […]

As a reminder, the EC50 is the concentration needed to bring the measured effect to its halfway point. As to `O=c1[nH]c(CCCN2C3CCC2CN(c2ccc(Cl)cc2)C3)cc2ncccc12` [Example 228, 7-(3-(3-(4-chlorophenyl)-3,8-diazabicyclo[3.2.1]octan-8-yl)propyl)-1,6-naphthyridin-5(6H)-one], in test [1], the inhibition at 0.001 µM was in the range of 50 to 80%. The EC50 in test [2] is 144 nM; in test [2] (Homo sapiens, ARPE-19, 6 h) it was below 150 nM. By IC50 is commonly meant the midpoint of a concentration-inhibition curve. Read a high IC50 as a need for much substance. With `N#Cc1ccc(C2=CCN(CCCc3cc4cccc(F)c4c(=O)[nH]3)CC2)nc1` [Example 46, 1′-(3-(8-fluoro-1-oxo-1,2-dihydroisoquinolin-3-yl)propyl)-1′,2′,3′,6′-tetrahydro-[2,4′-bipyridine]-5-carbonitrile], in test [1], the inhibition at 0.001 µM lay within 50 to 80% and the IC50 came out at 1.66 nM. Further, the “protection of retinal outer nuclear layer (ONL) thickness” value in test [3] was “the retina was protected”. Take `Cc1cc(F)cc2c(=O)[nH]c(CCC(=O)N3CC=C(c4ccc(C#N)cn4)CC3)cc12` [Example 165, 1′-(3-(7-fluoro-5-methyl-1-oxo-1,2-dihydroisoquinolin-3-yl)propanoyl)-1′,2′,3′,6′-tetrahydro-[2,4′-bipyridine]-5-carbonitrile]: the inhibition at 0.001 µM in test [1] was below 50%. For the same compound, the EC50 in test [2] is 108 nM; in test [2] (Homo sapiens, ARPE-19, 6 h), below 150 nM.

For `N#Cc1ccc(C2=CCN(C(=O)CCc3cc4cccc(F)c4c(=O)[nH]3)CC2)nc1` [Example 88, 1′-(3-(8-fluoro-1-oxo-1,2-dihydroisoquinolin-3-yl)propanoyl)-1′,2′,3′,6′-tetrahydro-[2,4′-bipyridine]-5-carbonitrile], in test [1], the inhibition at 0.001 µM was below 50%. This compound also returned an EC50 in test [2] (Homo sapiens, ARPE-19, 6 h) of 629 nM. As to `N#Cc1ccc(N2CCN(CCCc3cc4cccc(F)c4c(=O)[nH]3)CC2)cc1` [Example 1, 4-(4-(3-(8-fluoro-1-oxo-1,2-dihydroisoquinolin-3-yl)propyl)piperazin-1-yl)benzonitrile], the IC50 in test [1] turned out to be 2.3 nM. In addition, in test [3], the “protection of retinal outer nuclear layer (ONL) thickness” value is on record as “the retina was protected”. With `Cc1ccc(F)c2c(=O)[nH]c(CCCN3CCN(c4nccs4)CC3)cc12` [Example 29, 8-fluoro-5-methyl-3-(3-(4-(thiazole-2-yl)piperazin-1-yl)propyl)isoquinolin-1(2H)-one], the inhibition at 0.001 µM in test [1] was below 50%. In the case of `Cc1ccc(F)c2c(=O)[nH]c(CCCN3CCN(c4ncccn4)CC3)cc12` [Example 25, 8-fluoro-5-methyl-3-(3-(4-(pyrimidin-2-yl)piperazin-1-yl)propyl)isoquinolin-1(2H)-one], in test [1], the inhibition at 0.001 µM is below 50%. Same read-out and setting: as for `Cc1cc(F)cc2c(=O)[nH]c(CCC(=O)N3C4CCC3CN(c3ccc(F)nc3)C4)cc12` [Example 217, 7-fluoro-3-(3-(3-(6-fluoropyridin-3-yl)-3,8-diazabicyclo[3.2.1]octan-8-yl)-3-oxopropyl)-5-methylisoquinolin-1(2H)-one], the figure is below 50%. Same read-out and setting: as for `O=C(CCc1cc2cccc(F)c2c(=O)[nH]1)N1CC=C(c2ccc(F)cn2)CC1` [Example 86], the figure is below 50%; as for `O=C(CCc1cc2cccc(F)c2c(=O)[nH]1)N1CC=C(c2cccc(F)c2)CC1` [Example 83, 8-fluoro-3-(3-(4-(3-fluorophenyl)-3,6-dihydropyridin-1(2H)-yl)-3-oxopropyl)isoquinolin-1(2H)-one], below 50%; as for `N#Cc1ccc(N2CCN(CCCc3cc4cccc(F)c4c(=O)[nH]3)CC2)nc1` [Example 3, 6-(4-(3-(8-fluoro-1-oxo-1,2-dihydroisoquinolin-3-yl)propyl)piperazin-1-yl)nicotinonitrile], below 50%. Same read-out and setting: for `O=c1[nH]c(CCCN2CC=C(c3ccc(F)cn3)CC2)cc2cccc(F)c12` [Example 44, 8-fluoro-3-(3-(5-fluoro-3′,6′-dihydro-[2,4′-bipyridine]-1′(2′H)-yl)propyl)isoquinolin-1(2H)-one] the value was below 50%; for `O=C(CCc1cc2ccc(F)cc2c(=O)[nH]1)N1CCN(c2ccc(Cl)cc2)CC1` [Example 105, 3-(3-(4-(4-chlorophenyl)piperazin-1-yl)-3-oxopropyl)-7-fluoroisoquinolin-1(2H)-one], below 50%; for `Cc1cc(F)cc2c(=O)[nH]c(CCCN3C4CCC3CN(c3ccc(C#N)cn3)C4)cc12` [Example 205, 6-(8-(3-(7-fluoro-5-methyl-1-oxo-1,2-dihydroisoquinolin-3-yl)propyl)-3,8-diazabicyclo[3.2.1]octan-3-yl)nicotinonitrile], 50 to 80%.

In the case of `O=C(CCc1cc2ccc(F)cc2c(=O)[nH]1)N1CC=C(c2cccc(F)c2)CC1` [Example 115, 7-fluoro-3-(3-(4-(3-fluorophenyl)-3,6-dihydropyridin-1(2H)-yl)-3-oxopropyl)isoquinolin-1(2H)-one], in test [1], the inhibition at 0.001 µM is below 50%.

Take `Cc1ccc(F)c2c(=O)[nH]c(CCC(=O)N3CCN(c4ccccc4C#N)CC3)cc12` [Example 127, 2-(4-(3-(8-fluoro-5-methyl-1-oxo-1,2-dihydroisoquinolin-3-yl)propanoyl)piperazin-1-yl)benzonitrile]: the inhibition at 0.001 µM in test [1] was below 50%. For `COC(=O)c1ccc(NC2CCN(C(=O)CCc3cc4c(C)ccc(F)c4c(=O)[nH]3)CC2)cc1` [Example 268, methyl 4-((1-(3-(8-fluoro-5-methyl-1-oxo-1,2-dihydroisoquinolin-3-yl)propanoyl)piperidin-4-yl)amino)benzoate], in test [1], the inhibition at 0.001 µM is below 50% and the IC50 was found to be 8.59 nM.

Regarding `N#Cc1ccc(NC2CCN(C(=O)CCc3cc4cccc(F)c4c(=O)[nH]3)CC2)cc1` [Example 256, 4-((1-(3-(8-fluoro-1-oxo-1,2-dihydroisoquinolin-3-yl)propanoyl)piperidin-4-yl)amino)benzonitrile], the inhibition at 0.001 µM in test [1] was below 50%.
